{
  "source": "the supplement of paper PMC8967900",
  "assay_in_all_cases": "selective drug sensitivity score (sDSS, relative to normal bone marrow) (sDSS (score)); higher = more potent and effective on the cell line relative to normal bone marrow cells",
  "conditions_in_all_cases": "72 h",
  "key": {"[1]": {"test_system": "COG-LL-332h"}, "[2]": {"test_system": "P30-OHKUBO"}, "[3]": {"test_system": "ALL-SIL"}, "[4]": {"test_system": "CCRF-HSB2"}, "[5]": {"test_system": "JURKAT"}, "[6]": {"test_system": "KASUMI-9"}, "[7]": {"test_system": "COG-LL-394h"}, "[8]": {"test_system": "PEER"}, "[9]": {"test_system": "COG-LL-402h"}, "[10]": {"test_system": "TMD5"}, "[11]": {"test_system": "TANOUE"}, "[12]": {"test_system": "CCRF-CEM"}, "[13]": {"test_system": "RPMI-8402"}, "[14]": {"test_system": "P12-ICHIKAWA"}, "[15]": {"test_system": "KARPAS-45"}, "[16]": {"test_system": "COG-LL-355h"}, "[17]": {"test_system": "PF-382"}, "[18]": {"test_system": "LC4-1"}, "[19]": {"test_system": "COG-LL-317"}, "[20]": {"test_system": "NALM-6"}},
  "data": [
    {"smiles": "CCC1=C[C@@H]2CN(C1)Cc1c([nH]c3ccccc13)[C@@](C(=O)OC)(c1cc3c(cc1OC)N(C)[C@H]1[C@@](O)(C(=O)OC)[C@H](OC(C)=O)[C@]4(CC)C=CCN5CC[C@]31[C@@H]54)C2", "note": "[Vinorelbine] (top concentration 10000 nM)", "values": [
      {"measurement": "selective drug sensitivity score", "setting": "[1]", "value": 20.5},
      {"measurement": "selective drug sensitivity score", "setting": "[2]", "value": 21.5},
      {"measurement": "selective drug sensitivity score", "setting": "[3]", "value": 23.6},
      {"measurement": "selective drug sensitivity score", "setting": "[4]", "value": 20.1},
      {"measurement": "selective drug sensitivity score", "setting": "[5]", "value": 23.5},
      {"measurement": "selective drug sensitivity score", "setting": "[6]", "value": 24.2},
      {"measurement": "selective drug sensitivity score", "setting": "[7]", "value": 9.58},
      {"measurement": "selective drug sensitivity score", "setting": "[8]", "value": 19.8},
      {"measurement": "selective drug sensitivity score", "setting": "[9]", "value": 22.2},
      {"measurement": "selective drug sensitivity score", "setting": "[10]", "value": 13.4},
      {"measurement": "selective drug sensitivity score", "setting": "[11]", "value": -8.32},
      {"measurement": "selective drug sensitivity score", "setting": "[12]", "value": 17.8},
      {"measurement": "selective drug sensitivity score", "setting": "[13]", "value": 21},
      {"measurement": "selective drug sensitivity score", "setting": "[14]", "value": 15.9},
      {"measurement": "selective drug sensitivity score", "setting": "[15]", "value": 17.8},
      {"measurement": "selective drug sensitivity score", "setting": "[16]", "value": 5.98},
      {"measurement": "selective drug sensitivity score", "setting": "[17]", "value": 11},
      {"measurement": "selective drug sensitivity score", "setting": "[18]", "value": 23.4},
      {"measurement": "selective drug sensitivity score", "setting": "[19]", "value": 25.6},
      {"measurement": "selective drug sensitivity score", "setting": "[20]", "value": 14.9}
    ]}
  ]
}
